Measured values as given in PubChem BioAssay AID1949 (Southern Research Institute, 2009).
Values after ≈ are worked out from the molar mass of the structure shown. Results filed as inconclusive are left out. Active and inactive are the calls of the source. How the calls were made is not given here.

system: M. tuberculosis H37Rv growth inhibition; assay: Mycobacterium tuberculosis H37Rv growth inhibition, cell based, confirmatory dose response (AID 1949);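 further: bacteria grown 7 days with compound before Alamar blue readout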

SMILES	IC50
COc1ccc(-c2csc(Nc3ccc(S(N)(=O)=O)cc3)n2)cc1	3.73 µg/mL (≈ 10.3 µM)
Oc1ccc(Br)c2cccnc12	< 0.1 µg/mL
O=C(Nc1cccc([N+](=O)[O-])c1)N1CCN(Cc2ccc(Cl)cc2Cl)CC1	5.06 µg/mL (≈ 12.4 µM)
CCOC(=O)c1cc(-c2ccccc2)sc1NC(=S)NC(C)c1ccncc1 (centres undefined)	1.47 µg/mL (≈ 3.57 µM)
CCc1ccc(C2=CC(=O)c3ccccc3C2=O)cc1	5.94 µg/mL (≈ 22.6 µM)
Cc1ccc(-c2nnc(N3CCN(C(=O)c4ccc(Cl)cc4)CC3)c3ccccc23)cc1	3.65 µg/mL (≈ 8.24 µM)
NC(N)=N/N=C/c1ccc(OCc2ccc(Cl)cc2Cl)cc1	11 µg/mL (≈ 32.6 µM)
CC(C)(C)c1ccc(C(=O)N2CCC(C(=O)N3CCN(c4cccc(Cl)c4)CC3)CC2)cc1	> 50 µg/mL (inactive)
Cc1cccc(N2CCN(c3ncnc4sc5c(c34)CCCC5)CC2)n1	2.26 µg/mL (≈ 6.18 µM)
Cc1ccc(CSCC(=O)Nc2ccccc2)cc1	2.88 µg/mL (≈ 10.6 µM)
CCCOc1ccccc1NC(=O)Nc1ccc(Cl)c(Cl)c1	1.71 µg/mL (≈ 5.04 µM)
COc1ccccc1NC(=O)C1=C(C)NC(SCC(=O)Nc2ccccc2[N+](=O)[O-])=C(C#N)C1c1ccccc1F (centres undefined)	12 µg/mL (≈ 21 µM)
CCOC(=O)c1c(NC(=O)c2cc3ccccc3oc2=O)sc(C)c1-c1ccccc1	> 50 µg/mL (inactive)
Cc1ccc(NC(=O)C(C)NS(=O)(=O)c2ccc(Cl)cc2)cc1Cl (centres undefined)	2.85 µg/mL (≈ 7.36 µM)
O=[N+]([O-])c1cc(CN2CCN(c3ccccc3)CC2)c(O)c2ncccc12	6.09 µg/mL (≈ 16.7 µM)
CCc1ccccc1-n1c(=O)oc2ccc(Cl)cc2c1=O	1.37 µg/mL (≈ 4.54 µM)
Cn1nc([N+](=O)[O-])nc1Sc1ncnn1-c1ccccc1	2.98 µg/mL (≈ 9.83 µM)
O=C(O)c1ccc(NC(=S)NC(=O)c2ccc(-c3ccccc3)cc2)cc1	1.58 µg/mL (≈ 4.2 µM)
N#Cc1ccc(NC(=O)CSc2ccc(Br)cc2)cc1	3.04 µg/mL (≈ 8.75 µM)
CCOC(=O)c1cc(-c2ccccc2)sc1NC(=S)NC1CCN(Cc2ccccc2)CC1	0.77 µg/mL (≈ 1.61 µM)

SMILES	IC50
O=C(Oc1ccc(Cl)c2cccnc12)c1cccs1	0.37 µg/mL (≈ 1.28 µM)
O=C(CCSc1ccc(Cl)cc1)Nc1ccc(F)c(Cl)c1	4.06 µg/mL (≈ 11.8 µM)
Oc1c(CN2CCN(c3ccc(F)cc3)CC2)cc(Cl)c2cccnc12	1.07 µg/mL (≈ 2.88 µM)
CC(C)(C)c1ccc(OCC(=O)Nc2ccc(F)c(Cl)c2)cc1	13.7 µg/mL (≈ 40.9 µM)
O=[N+]([O-])/C=C/c1cccn1-c1ccc(F)cc1	7.57 µg/mL (≈ 32.6 µM)
C#CCOc1c(Cl)cc(/C=C/[N+](=O)[O-])cc1OC	29.4 µg/mL (≈ 110 µM)
COc1ccc(CCCC(=O)Nc2ccc(Cl)c(Cl)c2)c(C)c1	8.81 µg/mL (≈ 25 µM)
CCOc1ccc(NC(=S)Nc2ccc3nsnc3c2)cc1	0.52 µg/mL (≈ 1.57 µM)
CC(=O)c1ccc(S(=O)(=O)c2ccc(C)cc2)c([N+](=O)[O-])c1	2.94 µg/mL (≈ 9.21 µM)
COc1ccc2oc(=O)c(C(=O)Oc3ccc(Cl)cc3)cc2c1	> 50 µg/mL (inactive)
N#Cc1ccccc1-c1ccc(/C=C/[N+](=O)[O-])o1	> 50 µg/mL (inactive)
O=C(COc1ccc2ccccc2c1)c1ccc(Cl)cc1	16.5 µg/mL (≈ 55.4 µM)
COc1ccc(C(=O)NC(=S)Nc2ccc([N+](=O)[O-])cc2O)cc1Br	< 0.1 µg/mL
CCc1c(C)sc(NC(=S)N2CCN(CC)CC2)c1C(=O)OC	16.3 µg/mL (≈ 45.8 µM)
CN1CCC(O)(c2cccs2)C(C(=O)c2cccs2)C1 (centres undefined)	1.54 µg/mL (≈ 5.01 µM)
C#CCSc1nnc(-c2ccc([N+](=O)[O-])cc2)o1	< 0.1 µg/mL
CC(C)OC(=O)C(C)Oc1ccc2c(-c3ccccc3)cc(=O)oc2c1 (centres undefined)	1.63 µg/mL (≈ 4.63 µM)
Cc1ccc(-c2csc3ncn(C(C)C(=O)OC4CCCCC4)c(=O)c23)cc1C (centres undefined)	1.52 µg/mL (≈ 3.7 µM)
Cc1ccc(OCCN2CCN(c3nc(NCc4ccccc4)c4ccccc4n3)CC2)cc1	1.42 µg/mL (≈ 3.13 µM)
CCc1ccc(OCC(=O)Nc2cccc(F)c2)cc1	1.74 µg/mL (≈ 6.37 µM)

SMILES	IC50
Cc1cccc(OCC(O)CN2CCN(CCN3C(=O)c4cccc5cccc(c45)C3=O)CC2)c1C (centres undefined)	2.53 µg/mL (≈ 5.19 µM)
CCc1cc2c(=O)c(-c3ccc(OC)cc3)coc2cc1OCC(=O)OC	1.19 µg/mL (≈ 3.23 µM)
N#Cc1c(NC(=S)NC(=O)c2ccc(Cl)cc2Cl)sc2c1CCCCC2	3.36 µg/mL (≈ 7.92 µM)
Cc1ccc(C)c(OCC(=O)Nc2ccc(C(=O)OC(C)C)cc2)c1C	3.77 µg/mL (≈ 10.6 µM)
N#CSc1ccc(NC(=O)CSc2nc3ccccc3[nH]2)cc1	6.24 µg/mL (≈ 18.3 µM)
Cc1ccnc(NC(=O)COc2ccc(C(C)(C)C)cc2Br)c1	5.61 µg/mL (≈ 14.9 µM)
CCN(CC)c1ccc(NC(=O)c2ccc([N+](=O)[O-])o2)c(C)c1	0.52 µg/mL (≈ 1.64 µM)
Cc1cc(OCCCn2ccnc2)cc(C(C)C)c1	6.24 µg/mL (≈ 24.2 µM)
COc1ccc(OC)c(NC(=O)Nc2ccc(Cl)c(C(F)(F)F)c2)c1	1.72 µg/mL (≈ 4.59 µM)
CC(C)(C)c1ccc(C(=O)NC(=S)NCc2cccnc2)cc1	2.47 µg/mL (≈ 7.54 µM)
CCc1ccc(C(=O)NC(=S)Nc2ccc(Cc3ccncc3)cc2)cc1	10.9 µg/mL (≈ 29.1 µM)
O=C(Nc1nc2c(Cl)cccc2s1)c1ccc([N+](=O)[O-])o1	1.58 µg/mL (≈ 4.88 µM)
O=C(CC1COc2ccccc2O1)Nc1ccc(Br)cc1 (centres undefined)	11 µg/mL (≈ 31.6 µM)
O=C(Nc1cccc(CCc2ccccn2)c1)NC1CCCCC1	38.7 µg/mL (≈ 120 µM)
COC(=O)c1ccc(OCC(=O)c2ccc(F)cc2)cc1	> 50 µg/mL (inactive)
Cc1cc(N)cc(-c2nc3ccccc3o2)c1O	16.4 µg/mL (≈ 68.4 µM)
Clc1ccc(OCc2ccccc2Cl)c(CNCc2ccccc2)c1	5.09 µg/mL (≈ 13.7 µM)
Oc1ccc(-c2nc3cc4ccccc4cc3nc2-c2ccccc2)cc1	0.96 µg/mL (≈ 2.76 µM)
O=C(CC1CCCCC1)c1c(O)c2ccccc2oc1=O	> 50 µg/mL (inactive)
